US8901118B2, “Compounds and methods for kinase modulation, and indications therefor” (Plexxikon Inc., priority 2010, dated 2014)

Columns and labels:
BCR-KIT BaF3 cells = molecular target: T1, BCR-KIT BaF3 cells (Homo sapiens, UniProt P10721); assay: BaF3 BCR-KIT cell proliferation assay (ATPlite); format: cell-based; details: read-out: Inhibition of Cell Proliferation IC50, BCR/BaF3 Kit
T1 construct: fused on or other part: P11274 (Breakpoint cluster region protein)
Method in brief: (§1)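 For these proliferation assays, engineered BaF3 cells (10,000/well, IL-3 withdrawn) and MV-4-11 cells (25,000/well) received compound serially diluted 1:3 from 10 μM over 8 points, with DMSO as control. After three days of culture, ATP content was measured by luminescence to derive IC50.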

BCR-NTRK1 BaF3 cells = molecular target: T2, BCR-NTRK1 BaF3 cells (Homo sapiens, UniProt P04629); assay: BaF3 BCR-NTRK1 cell proliferation assay (ATPlite); format: cell-based; details: read-out: Inhibition of Cell Proliferation IC50, BCR/BaF3 TrkA
T2 construct: fused on or other part: P11274 (Breakpoint cluster region protein)
Method in brief: as §1

BCR-NTRK3 BaF3 cells = molecular target: T3, BCR-NTRK3 BaF3 cells (Homo sapiens, UniProt Q16288); assay: BaF3 BCR-NTRK3 cell proliferation assay (ATPlite); format: cell-based; details: read-out: Inhibition of Cell Proliferation IC50, BCR/BaF3 TrkC
T3 construct: fused on or other part: P11274 (Breakpoint cluster region protein)
Method in brief: as §1

SKNSH cells = assay: SKNSH (human neuroblastoma) cell proliferation assay (ATPlite); format: cell-based; details: SK-N-SH, read-out: Inhibition of Cell Proliferation IC50, SKNSH
Method in brief: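 Fms/Trk inhibitor efficacy was tested by proliferation of SKNSH neuroblastoma cells. After 3 days of compound exposure at 37° C. in 5% CO2, 20 μL per well of ATPlite 1 step reagent was added, plates sat 10 minutes at room temperature, and luminescence, proportional to cell number, was read on a Safire reader to derive IC50.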

CYP2C9 = CYP2C9 (Homo sapiens, UniProt P11712); assay: CYP2C9 inhibition (fluorescent substrate MFC); format: in vitro ADME; details: read-out: Cyp IC50 2C9
Method in brief: (§2)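 Test compound titrated 1:1 across ten concentrations; metabolite fluorescence measured after 37 °C incubation of 15 min (CYP1A2), 30 min (CYP2C19, CYP2D6) or 45 min (CYP2C9). IC50 from signal versus concentration.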

CYP2D6 = CYP2D6 (Homo sapiens, UniProt P10635); assay: CYP2D6 inhibition (fluorescent substrate AMMC); format: in vitro ADME; details: read-out: Cyp IC50 2D6
Method in brief: as §2

CYP3A4(BFC) = CYP3A4(BFC) (Homo sapiens, UniProt P08684); assay: CYP3A4(BFC) inhibition; format: in vitro ADME; details: CYP3A4, substrate BFC; read-out: Cyp IC50 3A4(BFC)
Method in brief: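 This fluorescence assay tracks how test compounds reduce CYP3A4 turnover of BFC, with enzyme and substrate from BD Biosciences. A 10-point 1:1 dilution series in cofactor mix (1.3% NADPH Regeneration Solution A, 1.04% Solution B, 5% acetonitrile, 0.05% DMSO) was dispensed at 10 μL into 384 well plates, preincubated 10 minutes at 37° C, then incubated 30 min and read on a Tecan Safire 2.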

Chain of CYP3A4(BFC) (P08684 whole entry): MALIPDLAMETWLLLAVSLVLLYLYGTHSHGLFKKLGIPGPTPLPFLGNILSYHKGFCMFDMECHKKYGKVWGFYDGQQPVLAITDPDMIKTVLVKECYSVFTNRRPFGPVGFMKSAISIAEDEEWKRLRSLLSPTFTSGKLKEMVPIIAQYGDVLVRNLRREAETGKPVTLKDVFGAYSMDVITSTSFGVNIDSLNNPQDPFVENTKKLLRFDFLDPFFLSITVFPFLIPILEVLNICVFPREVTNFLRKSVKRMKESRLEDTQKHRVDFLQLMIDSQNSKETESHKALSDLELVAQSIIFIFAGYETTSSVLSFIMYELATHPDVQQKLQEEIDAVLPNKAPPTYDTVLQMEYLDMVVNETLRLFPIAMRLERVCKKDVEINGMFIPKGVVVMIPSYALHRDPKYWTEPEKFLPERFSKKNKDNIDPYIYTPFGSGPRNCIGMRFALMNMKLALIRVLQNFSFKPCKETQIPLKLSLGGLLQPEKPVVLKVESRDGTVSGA
T2 sequence (P04629 510-781): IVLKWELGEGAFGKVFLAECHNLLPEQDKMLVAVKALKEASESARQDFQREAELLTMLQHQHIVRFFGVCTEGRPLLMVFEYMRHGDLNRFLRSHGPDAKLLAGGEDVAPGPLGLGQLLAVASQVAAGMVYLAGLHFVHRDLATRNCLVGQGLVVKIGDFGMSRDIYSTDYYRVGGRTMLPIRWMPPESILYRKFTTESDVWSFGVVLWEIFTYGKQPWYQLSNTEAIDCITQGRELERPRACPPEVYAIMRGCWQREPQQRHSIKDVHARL
Chain of CYP2C9 (P11712 whole entry): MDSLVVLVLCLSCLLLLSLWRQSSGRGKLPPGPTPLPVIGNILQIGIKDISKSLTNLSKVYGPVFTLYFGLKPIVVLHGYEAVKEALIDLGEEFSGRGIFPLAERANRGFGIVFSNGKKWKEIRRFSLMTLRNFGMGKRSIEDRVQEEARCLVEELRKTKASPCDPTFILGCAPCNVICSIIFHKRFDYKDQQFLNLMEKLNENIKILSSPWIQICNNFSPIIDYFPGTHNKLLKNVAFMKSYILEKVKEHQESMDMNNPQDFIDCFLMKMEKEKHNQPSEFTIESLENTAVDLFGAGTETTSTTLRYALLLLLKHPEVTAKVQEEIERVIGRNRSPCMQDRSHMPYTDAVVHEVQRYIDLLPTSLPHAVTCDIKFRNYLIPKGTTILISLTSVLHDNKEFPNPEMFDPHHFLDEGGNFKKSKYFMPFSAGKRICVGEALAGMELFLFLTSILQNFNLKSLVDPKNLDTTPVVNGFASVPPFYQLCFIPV
Chain of CYP2D6 (P10635 whole entry): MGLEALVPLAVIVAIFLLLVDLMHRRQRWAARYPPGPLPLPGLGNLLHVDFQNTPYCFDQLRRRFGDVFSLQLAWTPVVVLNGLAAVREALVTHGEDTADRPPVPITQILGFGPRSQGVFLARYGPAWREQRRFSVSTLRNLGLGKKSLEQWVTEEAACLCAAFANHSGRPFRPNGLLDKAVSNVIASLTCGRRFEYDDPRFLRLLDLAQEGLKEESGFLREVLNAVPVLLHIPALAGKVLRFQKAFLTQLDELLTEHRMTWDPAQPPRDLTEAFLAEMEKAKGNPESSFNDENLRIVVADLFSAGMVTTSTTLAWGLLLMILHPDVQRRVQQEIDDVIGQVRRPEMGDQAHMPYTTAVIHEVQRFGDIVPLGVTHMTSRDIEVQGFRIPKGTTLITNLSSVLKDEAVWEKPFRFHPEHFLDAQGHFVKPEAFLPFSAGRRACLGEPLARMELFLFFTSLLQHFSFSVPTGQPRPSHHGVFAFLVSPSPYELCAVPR
T3 sequence (Q16288 whole entry, the tested form may be a part): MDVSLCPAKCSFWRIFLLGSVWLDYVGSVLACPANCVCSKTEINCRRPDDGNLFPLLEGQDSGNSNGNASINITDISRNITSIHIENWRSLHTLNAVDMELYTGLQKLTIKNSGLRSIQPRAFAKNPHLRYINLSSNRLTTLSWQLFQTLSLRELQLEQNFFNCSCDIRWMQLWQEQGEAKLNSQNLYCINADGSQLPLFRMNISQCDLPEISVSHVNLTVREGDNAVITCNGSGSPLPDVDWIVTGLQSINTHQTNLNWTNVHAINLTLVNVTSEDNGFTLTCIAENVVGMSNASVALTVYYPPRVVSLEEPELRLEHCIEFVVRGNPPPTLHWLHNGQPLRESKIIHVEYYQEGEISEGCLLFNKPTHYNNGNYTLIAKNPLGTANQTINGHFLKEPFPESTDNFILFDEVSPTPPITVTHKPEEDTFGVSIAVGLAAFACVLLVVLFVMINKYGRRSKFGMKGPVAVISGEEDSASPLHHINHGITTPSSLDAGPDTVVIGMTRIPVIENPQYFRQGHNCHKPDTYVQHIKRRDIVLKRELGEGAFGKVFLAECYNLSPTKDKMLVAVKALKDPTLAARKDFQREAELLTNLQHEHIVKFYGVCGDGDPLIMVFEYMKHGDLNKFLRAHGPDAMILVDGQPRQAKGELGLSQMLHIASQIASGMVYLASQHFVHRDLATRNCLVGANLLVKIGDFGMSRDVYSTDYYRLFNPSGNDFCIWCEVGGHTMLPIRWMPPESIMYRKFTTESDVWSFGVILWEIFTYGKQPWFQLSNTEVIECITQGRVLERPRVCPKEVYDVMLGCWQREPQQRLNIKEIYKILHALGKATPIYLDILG
T1 sequence (P10721 589-937): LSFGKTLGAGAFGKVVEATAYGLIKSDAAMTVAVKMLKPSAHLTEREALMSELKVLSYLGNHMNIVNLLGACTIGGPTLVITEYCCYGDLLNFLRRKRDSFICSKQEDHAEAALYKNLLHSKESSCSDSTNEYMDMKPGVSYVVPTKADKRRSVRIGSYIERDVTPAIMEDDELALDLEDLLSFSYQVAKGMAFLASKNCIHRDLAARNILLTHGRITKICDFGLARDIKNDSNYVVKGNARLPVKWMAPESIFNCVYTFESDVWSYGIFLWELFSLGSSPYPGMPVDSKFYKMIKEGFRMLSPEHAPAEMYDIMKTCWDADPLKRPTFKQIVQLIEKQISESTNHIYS

Structure (SMILES)	IC50 (BCR-KIT BaF3 cells) [nM]	IC50 (BCR-NTRK1 BaF3 cells) [nM]	IC50 (BCR-NTRK3 BaF3 cells) [nM]	IC50 (SKNSH cells) [nM]	IC50 (CYP2C9) [nM]	IC50 (CYP2D6) [nM]	IC50 (CYP3A4(BFC)) [nM]
CCOc1ccc(Nc2ccc(Cc3c[nH]c4ncnc(C)c34)c(F)n2)cn1 [Compound P-4006, (6-Ethoxy-pyridin-3-yl)-[6-fluoro-5-(4-methyl-7H-pyrrolo[2,3-d]pyrimidin-5-ylmethyl)-pyridin-2-yl]-amine]	< 100	< 100	< 10	< 100	> 10000	> 10000	> 10000
CCOc1ccc(Nc2ccc(Cc3c[nH]c4ncnc(OC)c34)c(F)n2)cn1 [Compound P-4005, (6-Ethoxy-pyridin-3-yl)-[6-fluoro-5-(4-methoxy-7H-pyrrolo[2,3-d]pyrimidin-5-ylmethyl)-pyridin-2-yl]-amine]	< 100	< 100	< 10	< 1000	> 10000	> 10000	> 10000
CCOc1ncnc2[nH]cc(Cc3ccc(Nc4cnn(CC)c4)nc3F)c12 [Compound P-4012, [5-(4-Ethoxy-7H-pyrrolo[2,3-d]pyrimidin-5-ylmethyl)-6-fluoro-pyridin-2-yl]-(1-ethyl-1H-pyrazol-4-yl)-amine]	< 1000	< 1000	< 100	> 1000	> 10000	> 10000	> 10000
Cc1cnc2[nH]cc(C(=O)c3ccc(Nc4ccc(C)nc4)nc3F)c2c1 [Compound P-3043, [2-Fluoro-6-(6-methyl-pyridin-3-ylamino)-pyridin-3-yl]-(5-methyl-1H-pyrrolo[2,3-b]pyridin-3-yl)-methanone]	< 1000	< 100	< 100	< 1000	> 10000	> 10000	> 10000
CCn1cc(Nc2ccc(Cc3c[nH]c4ncnc(C)c34)c(F)n2)cn1 [Compound P-4013, (1-Ethyl-1H-pyrazol-4-yl)-[6-fluoro-5-(4-methyl-7H-pyrrolo[2,3-d]pyrimidin-5-ylmethyl)-pyridin-2-yl]-amine]	< 1000	< 1000	< 1000	> 1000	< 5000	> 10000	> 10000
COCCOc1ncnc2[nH]cc(Cc3ccc(Nc4ccc(OC)nc4)nc3F)c12 [Compound P-4019, {6-Fluoro-5-[4-(2-methoxy-ethoxy)-7H-pyrrolo[2,3-d]pyrimidin-5-ylmethyl]-pyridin-2-yl}-(6-methoxy-pyridin-3-yl)-amine]	< 1000	< 1000	< 100	> 1000	> 10000	> 10000	5000 to 10000
COc1ncnc2[nH]cc(Cc3ccc(Nc4ccc(Cl)nc4)nc3F)c12 [Compound P-4003, (6-Chloro-pyridin-3-yl)-[6-fluoro-5-(4-methoxy-7H-pyrrolo[2,3-d]pyrimidin-5-ylmethyl)-pyridin-2-yl]-amine]	> 1000	< 1000	< 100	> 1000	> 10000	> 10000	> 10000
CCOc1ccc(Nc2ccc(Cc3c[nH]c4ncnc(OCCOC)c34)c(F)n2)cn1 [Compound P-4008, (6-Ethoxy-pyridin-3-yl)-{6-fluoro-5-[4-(2-methoxy-ethoxy)-7H-pyrrolo[2,3-d]pyrimidin-5-ylmethyl]-pyridin-2-yl}-amine]	< 1000	< 100	< 100	> 1000	> 10000	> 10000	5000 to 10000
CCc1ccc(Nc2ccc(Cc3c[nH]c4ncnc(C)c34)c(F)n2)cn1 [Compound P-4009, (6-Ethyl-pyridin-3-yl)-[6-fluoro-5-(4-methyl-7H-pyrrolo[2,3-d]pyrimidin-5-ylmethyl)-pyridin-2-yl]-amine]	< 1000	< 100	< 10	< 100	> 10000	> 10000	> 10000

The remaining lines, values ahead:

IC50 (BCR-KIT BaF3 cells) [nM]	IC50 (BCR-NTRK1 BaF3 cells) [nM]	IC50 (BCR-NTRK3 BaF3 cells) [nM]	IC50 (SKNSH cells) [nM]	IC50 (CYP2C9) [nM]	IC50 (CYP2D6) [nM]	IC50 (CYP3A4(BFC)) [nM]	Structure (SMILES)
< 1000	< 100	< 100	< 10000	> 10000	> 10000	> 10000	COc1ccc(Nc2ccc(Cc3c[nH]c4ncc(C)cc34)c(F)n2)cn1 [Compound P-3019, [6-fluoro-5-(5-methyl-1H-pyrrolo[2,3-b]pyridin-3-ylmethyl)-pyridin-2-yl]-(6-methoxy-pyridin-3-yl)-amine]
< 1000	< 10	< 10	< 1000	> 10000	5000 to 10000	5000 to 10000	COc1ccc(Nc2ccc(C(=O)c3c[nH]c4ncnc(C5CC5)c34)c(F)n2)cn1 [Compound P-4022, (4-cyclopropyl-7H-pyrrolo[2,3-d]pyrimidin-5-yl)-[2-fluoro-6-(6-methoxy-pyridin-3-ylamino)-pyridin-3-yl]-methanone]
< 1000	< 10	< 10	< 1000	> 10000	> 10000	> 10000	CCc1ccc(Nc2ccc(Cc3c[nH]c4ncnc(OC)c34)c(F)n2)cn1 [Compound P-4007, (6-Ethyl-pyridin-3-yl)-[6-fluoro-5-(4-methoxy-7H-pyrrolo[2,3-d]pyrimidin-5-ylmethyl)-pyridin-2-yl]-amine]
> 1000	< 1000	< 1000	> 1000	5000 to 10000	> 10000	5000 to 10000	CCn1cc(Nc2ccc(Cc3c[nH]c4ncnc(OC)c34)c(F)n2)cn1 [Compound P-4011, (1-Ethyl-1H-pyrazol-4-yl)-[6-fluoro-5-(4-methoxy-7H-pyrrolo[2,3-d]pyrimidin-5-ylmethyl)-pyridin-2-yl]-amine]
< 1000	< 100	< 10	< 1000	> 10000	5000 to 10000	< 5000	COc1ccc(Nc2ccc(Cc3c[nH]c4ncnc(C5CC5)c34)c(F)n2)cn1 [Compound P-4023, [5-(4-cyclopropyl-7H-pyrrolo[2,3-d]pyrimidin-5-ylmethyl)-6-fluoro-pyridin-2-yl]-(6-methoxy-pyridin-3-yl)-amine]
< 1000	< 1000	< 100	> 1000	> 10000	> 10000	> 10000	Fc1nc(NC2CCC(F)(F)CC2)ccc1Cc1c[nH]c2ncnc(NCC(F)(F)F)c12 [Compound P-4128, 5-[[6-[(4,4-difluorocyclohexyl)amino]-2-fluoro-3-pyridyl]methyl]-N-(2,2,2-trifluoroethyl)-7H-pyrrolo[2,3-d]pyrimidin-4-amine]
< 1000	< 1000	< 100	< 1000	> 10000	> 10000	> 10000	CCOc1ncnc2[nH]cc(Cc3ccc(Nc4ccc(C)nc4)nc3F)c12 [Compound P-4017, [5-(4-Ethoxy-7H-pyrrolo[2,3-d]pyrimidin-5-ylmethyl)-6-fluoro-pyridin-2-yl]-(6-methyl-pyridin-3-yl)-amine]
< 1000	< 1000	< 100	> 1000	> 10000	> 10000	> 10000	Cc1ccc(Nc2ccc(C(=O)c3c[nH]c4ncc(Cl)cc34)c(F)n2)cn1 [Compound P-3044, (5-Chloro-1H-pyrrolo[2,3-b]pyridin-3-yl)-[2-fluoro-6-(6-methyl-pyridin-3-ylamino)-pyridin-3-yl]-methanone]
< 1000	< 100	< 100	> 1000	> 10000	> 10000	< 5000	CCOc1ccc(Nc2ccc(C(=O)c3c[nH]c4ncnc(OC)c34)c(F)n2)cn1 [Compound P-4024, [6-(6-Ethoxy-pyridin-3-ylamino)-2-fluoro-pyridin-3-yl]-(4-methoxy-7H-pyrrolo[2,3-d]pyrimidin-5-yl)-methanone]
< 1000	< 100	< 10	< 1000	> 10000	> 10000	5000 to 10000	CCOc1ncnc2[nH]cc(Cc3ccc(Nc4ccc(OC)nc4)nc3F)c12 [Compound P-4018, [5-(4-Ethoxy-7H-pyrrolo[2,3-d]pyrimidin-5-ylmethyl)-6-fluoro-pyridin-2-yl]-(6-methoxy-pyridin-3-yl)-amine]
